Measured values reported in US8404644B2, “Agents with angiogenic and wound healing activity” (Meat & Livestock Australia Limited, priority 2007, dated 2013).

What was measured:
rat aortic ring [1] = experiment: Rat aortic ring angiogenesis assay (Example 4.3); format: cell-based, Lewis rat; conditions: for % of Control: microvessel growth; for activity in promoting angiogenesis: summary of second study
Method: Four separate studies were carried out to determine the angiogenic effect of crystallin preparations. Each sample was assayed in triplicate. A positive control (VEGF) and a vehicle control containing PBS was also run in triplicate. […] Preliminary statistical significance was assessed with an independent Student t-test at α<0.05. Graphical representation of averages +/− standard errors were determined.
The first study investigated the angiogenic potential of bovine fractions prepared by gel filtration analysis as described in Example 3.2. As described in that Example, the alpha fraction contained αA and αB crystallin, the β H fraction contained all β crystallins, the β L1 fractions contained a sub-fraction of beta crystallins and a high content of βB2 crystallin and beta B3 crystallin and the beta L2 fraction contained only βB2 crystallin and βA3 crystallin.
The second study investigated the angiogenic potential of purified crystallin proteins. Briefly, βB3 crystallin was prepared by heating (97-99° C. for 3 minutes, supernatant collected by centrifugation) and was essentially homogenous. Alpha A crystallin and αB crystallin samples were prepared by ion exchange chromatography as described above and were also essentially homogenous. The Wound Heal 1-3 preparations were also tested in this study.
The third study investigated the angiogenic potential of ovine crystallin proteins compared to their bovine equivalents. Both bovine and ovine crystallin proteins were purified essentially to homogeneity by RP. HPLC using a C4 column, as described below in Example 5. Homogeneity was confirmed by SDS-PAGE. The effect of elastase I treatment of βB2 crystallin was also investigated by comparing the angiogenic potential of intact βB2 crystallin (i.e. undigested) with elastase I digested βB2 crystallin. Elastase I treatment releases the N-terminal and C-terminal extensions of the crystallin protein leaving a globular protein that is monomeric.
In the final study, ovine βB2 crystallin was tested alone or in combination with indoleamine 2,3-dioxygenase (IDO) and ovine alpha B crystallin was tested alone or in combination with tryptophan dioxygenase (TDO)
Briefly, in each study, a single Lewis rat was euthanised and its aorta transferred to a 15 mL Falcon tube containing 10 mL of MCBD-131 medium and stored on ice. After transferring the aorta to a 92×17 mm petri dish containing 10 mL of ice cold MCDB-131, the outer fatty tissue was removed under an Olympus SZ-60 Dissecting microscope. This was undertaken with fibre optic lamp illumination. The aorta was then cut into sequential rings approximately 2 mm in size. Connective tissue was removed with micro scissors and forceps from the outside of the individual rings. Clean rings were stored in a separate petri dish in sterile MCDB-131 medium. Rings were pre-incubated overnight at 37° C. in an atmosphere of 97% air/3% CO2.
To prepare gel sandwiches, 75 mg of fibrinogen was added to 25 mL MCDB-131 medium and shaken gently on a rocker roller for 5 minutes. 3 ml of MCDB-131/fibrinogen solution was added to a 15 mL Falcon tube, followed by 10 μL of thrombin and quickly mixed. A 0.4 mL volume of this fibrinogen-thrombin solution was added to each well on a 24 well plate, 6 wells at a time. Aortic rings were then placed on the setting gel, pushed gently into the gel and left for 45 minutes. These steps were then repeated so each ring was covered with 0.4 mL of gel. Gels were left to set at room temperature. […] The plate was then placed in incubator (37° C., 97% air/3% CO2).
Culture plate were examined daily for signs of infection (fungal growth or yellowing of media) in the wells using an inverted microscope. The growth of microvessels from their perimeters was also observed. Digital photographs of each well were taken seven days after plating using a Pixera PVC-100C digital camera mounted on an OLYMPUS CK-12 microscope and stored on a Macintosh Computer. […]

elastase I = target: T1, elastase I (Sus scrofa, UniProt P00772); experiment: Chaperone activity: protection of elastase I from heat denaturation; format: biochemical; conditions: boiling water bath for 30 seconds
T1 construct: purchased Worthington Biochemical Corporation 2280
T1 sequence (P00772 27-266): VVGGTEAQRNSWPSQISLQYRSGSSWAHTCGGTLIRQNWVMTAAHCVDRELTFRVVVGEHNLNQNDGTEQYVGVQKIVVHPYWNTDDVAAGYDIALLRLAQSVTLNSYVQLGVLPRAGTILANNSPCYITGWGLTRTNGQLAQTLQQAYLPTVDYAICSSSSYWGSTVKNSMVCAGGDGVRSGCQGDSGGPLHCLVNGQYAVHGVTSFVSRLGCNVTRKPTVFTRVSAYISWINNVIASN
Method: Bovine crystallin fractions were tested for ability to protect the proteases elastase I, trypsin and chymotrypsin from heat denaturation. Briefly, the proteases were heated in a boiling water bath for 30 seconds in the presence or absence of the crystallin fractions.

[2] = test system: bovine aorta endothelial cells; experiment: Endothelial cell migration assay; format: cell-based; conditions: compared to the background level of migration (cells and media); 22±1 hour
Method: Bovine aorta where obtained from a local abattoir and clamped at either end. Arterioles were tied off with string. The aorta was washed free of contaminating blood with 2% sucrose solution under sterile conditions. Trypsin was added in PBS buffer and incubated for 30 minutes. The endothelial cell suspension was mixed 1:1 with cell culture media (DMEM containing 20% foetal bovine serum, 2% glutamine and antibiotics). The cells were collected by centrifugation at 960×g for 10 minutes then suspended in media prior to culturing stock cell ampoules. After five cell passages the cells were frozen in 10% DMSO and stored in liquid nitrogen. […] The cells were then harvested for use.
BD Bioscience angiogenesis cell migration assay 24 well plates (BD Bioscience, Franklin Lakes, N.J., United States) were used as per the manufacturers instructions. The migration plate was kept at −18° C. until required. Briefly, bovine aorta endothelial cells were prepared in DMEM and HEPES pH 7.2 at 2×10^5 cells/mL. A 250 μL volume of the cell suspension (5×10^4 cells) were added to the top chamber. Immediately, 750 μL was added to each of the bottom wells using the sample port to the bottom wells. Samples were prepared by adding the glycoprotein extract to 1 mL of DMEM containing HEPES. The plate was incubated for 22±1 hour at 37° C., 5% CO2 atmosphere. […]

rat aortic ring [3] = experiment: Rat aortic ring angiogenesis assay (Examples 1 and 2); format: cell-based
Method: Rat aorta were removed and cleaned of adhering fatty and connective tissues before being cut into rings of approximately 3 mm width. Fibrinogen was applied to the bottoms of wells of multi-well culture plates and allowed to gel by thrombin action. An aortic ring was then layered on the top of each gel and a further layer of fibrin placed on this. The fibrinogen was prepared in MCDB131 medium (Sigma, United States) supplemented with antibiotics. The double layer of fibrin was then overlaid with MCDB131 medium containing the test extracts. Control wells contained HBSS. Fumagillin (20 μg/mL) was assayed in triplicate as a negative control.
The gels were incubated at 37° C. in an atmosphere of 3% CO2/97% air. The rings were examined using an inverted microscope and the growth of microvessels from their perimeters is observed. Digital pictures were taken of these every 2 days and the extent of microvessel growth relative to the size of the ring was determined using National Institute of Health (NIH) Image software (National Institutes of Health (NIH), Rockville Pike, Bethesda, Md., United States, and the rate of growth of microvessels was then determined for each well. Each test extract was assayed in triplicate and the mean growth rate was calculated.
Additional analysis of several of the MLA008E2 fractions was performed using the rat aortic ring assay (in vitro angiogenesis) as described in Example 1.8 and a rat dorsal flap assay (wound healing assay).

In the case of “Bovine αA crystallin: bovine alpha A crystallin prepared by ion exchange chromatography, essentially homogenous”, the “increase in microvessel growth (stimulatory)” value (rat aortic ring [1]; second study, 200 μg/mL) is reported as 8.26%, the “% of Control” value (rat aortic ring [1]; second study, 200 μg/mL) is reported as 108.26% and the “angiogenic activity (in words)” value (rat aortic ring [1]; summary of second and third study) is reported as “angiogenic”. The “activity in promoting angiogenesis” value (rat aortic ring [1]) was 108% and the “chaperone activity: protection of elastase I from heat denaturation (in words)” value (elastase I) was “able to protect elastase I from heat inactivation”.

In the case of “Indoleamine 2,3-dioxygenase IDO: tryptophan hydrolyzing enzyme”, the “angiogenic activity (in words)” value (rat aortic ring [1]; forth study, 100 μg/mL) is reported as “stimulatory” and the “% of Control” value (rat aortic ring [1]; forth study, 100 μg/mL) is reported as 116.4%.

`N[C@@H](Cc1c[nH]c2ccccc12)C(=O)O` [Tryptophan, tryptophan] was tested, and the “endothelial cell migration (in words)” value [2] was “able to promote migration of the cells”.

VEGF [reference compound] was tested, and the Mean growth rate (rat aortic ring [3]; batch 2, 40 μg/ml) was 13.9 ± 0.2, the “Percentage stimulation or inhibition” value (rat aortic ring [3]; stimulation, batch 2, 40 μg/ml) was 11.1% stimulation and the “inhibition of microvessel growth” value (rat aortic ring [1]; first study, 30 μg/ml, not statistically significant) was 15.08%. For the same molecule, the “% of Control” value (rat aortic ring [1]; forth study, 50 μg/mL) was 113.7%, the “angiogenic effect on microvessel growth (in words)” value (rat aortic ring [1]; second study, VEGF 50 μg/mL, test samples 200 μg/mL) was “slight stimulation” and the “% of Control” value (rat aortic ring [1]; second study, 50 μg/mL) was 107.08%. For the same molecule, the “activity in promoting angiogenesis” value (rat aortic ring [1]; 50 ng/mL) was 107% and the “% of Control” value (rat aortic ring [1]; third study, 50 μg/mL) was 113.7%.

For `CO[C@@H]1[C@H](OC(=O)/C=C/C=C/C=C/C=C/C(=O)O)CC[C@]2(CO2)[C@H]1[C@@]1(C)O[C@@H]1CC=C(C)C` [Fumagillin], the “Rate of microvessel growth” value (rat aortic ring [3]; 20 μg/ml) was 9.462 ± 1.67, the Mean growth rate (rat aortic ring [3]; batch 1, 20 μg/ml) was 9.5 ± 1.7 and the Mean growth rate (rat aortic ring [3]; batch 2, 40 μg/ml) was 5.4 ± 1.6. For the same molecule, the Stimulation/inhibition (rat aortic ring [3]; inhibition vs Control (HBSS), 20 μg/ml) was 24.07% inhibition, the “Percentage stimulation or inhibition” value (rat aortic ring [3]; inhibition, batch 1, 20 μg/ml) was 24.1% inhibition and the “Percentage stimulation or inhibition” value (rat aortic ring [3]; inhibition, batch 2, 40 μg/ml) was 57.7% inhibition.
